Test results reported in patent US10350271B2, “Lipidated peptides for lowering blood glucose” (USTAV ORGANICKE CHEMIE A BIOCHEMIE AKADEMIE VED CR, V.V.I., priority 2014, dated 2019).
Marks after values point to notes of the source that are not given here. Numbered stars: 1 amine (or outer) side, 2 acyl side, 3 side chain; on linkers, the order of the positions; unused ones are H or OH. Side chains are listed from the residue outwards. Ends that are not written are not given here. Peptide text beside a SMILES is read from it. * marks the point of attachment. γGlu = O=C(O)[C@H](CCC(=O)[*:2])N[*:1]; Palmitoyl = CCCCCCCCCCCCCCCC(=O)*

Tests used:
[1] = molecular target: T1, rat PrRP receptor (Rattus norvegicus, UniProt Q64121); assay: Competitive binding in RC-4B/C rat pituitary cells (125I-rat PrRP31)
T1 construct: host or cells: RC-4B/C rat pituitary cell line
T1 sequence (Q64121 1-370): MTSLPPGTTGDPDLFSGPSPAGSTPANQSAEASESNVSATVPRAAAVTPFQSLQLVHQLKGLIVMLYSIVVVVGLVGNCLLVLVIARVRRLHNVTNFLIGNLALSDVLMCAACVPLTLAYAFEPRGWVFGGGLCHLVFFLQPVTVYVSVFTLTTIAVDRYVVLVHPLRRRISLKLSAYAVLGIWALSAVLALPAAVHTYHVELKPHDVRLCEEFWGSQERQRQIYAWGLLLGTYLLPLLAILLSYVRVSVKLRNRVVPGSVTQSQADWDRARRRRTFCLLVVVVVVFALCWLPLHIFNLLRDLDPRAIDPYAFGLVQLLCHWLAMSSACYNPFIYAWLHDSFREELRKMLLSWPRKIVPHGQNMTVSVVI
In short: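 Intact rat pituitary RC-4B/C cells incubated 60 min at room temperature with […] rat 125I-PrRP31 and unlabeled analog (10^−11 to 10^−4 mol·l^−1) in HEPES pH 7.4 buffer. Cell-bound radioactivity γ-counted after NaOH lysis; one-site competition fit.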

[2] = molecular target: T2, human PrRP receptor GPR10 (Homo sapiens, UniProt P49683); assay: Competitive binding in CHO cells transfected with human GPR10 (human 125I-PrRP31)
T2 construct: host or cells: CHO cells
T2 sequence (P49683 1-370): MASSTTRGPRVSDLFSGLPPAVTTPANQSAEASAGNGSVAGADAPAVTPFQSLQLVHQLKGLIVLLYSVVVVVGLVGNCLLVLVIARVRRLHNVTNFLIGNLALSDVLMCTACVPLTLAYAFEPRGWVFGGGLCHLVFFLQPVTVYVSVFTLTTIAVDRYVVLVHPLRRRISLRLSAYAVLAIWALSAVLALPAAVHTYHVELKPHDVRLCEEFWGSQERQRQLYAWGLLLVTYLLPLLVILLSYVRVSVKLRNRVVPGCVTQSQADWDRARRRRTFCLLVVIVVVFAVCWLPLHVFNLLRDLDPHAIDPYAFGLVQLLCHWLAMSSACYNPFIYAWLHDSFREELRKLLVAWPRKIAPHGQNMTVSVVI
In short: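 GPR10-transfected CHO cells (40-80 thousand/well) incubated 60 min at room temperature with 5×10^-11 mol·l^-1 human 125I-PrRP31 and unlabeled analog at 10^-11 to 10^-4 mol·l^-1 in Tris binding buffer pH 7.4. Cells solubilized in 0.1 mol/l NaOH, γ-counted; one-site nonlinear regression fit.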

[3] = test system: C57BL/6 mice; assay: Food intake in fasted mice after SC injection; format: in vivo; details: 5 mg/kg SC, 45 min after injection
In short: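 Overnight-fasted animals (food removed 17 h before dosing, water available) in individual cages got saline, PrRP or lipidated PrRP analogs SC at 1-10 mg/kg.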

[4] = test system: Wistar rats; assay: Food intake in fasted rats after SC injection; format: in vivo; details: overnight fasted rats, compared to controls given vehicle
Protocol: (§1) NMRI mice, C57BL/6 mice, and Wistar rats (AnLab, Prague, Czech Republic) were housed in a temperature of 23° C. and a daily cycle of 12 h light and dark (light from 6:00). They were given ad libitum water and a standard chow diet that contained 25, 9 and 66% of calories of protein, fat and carbohydrate respectively. Energy content of the feed was 3.4 kcal/g (St-1, Mlýn Kocanda, Czech Republic). Db/db mice and their controls (C57BL/6 background) were obtained from Taconic (Denmark), housed under the same conditions as described above, and fed by Altromin (Taconic, Denmark). ZDF-Lepr^fa/Crl, diabetic fa/fa male rats were obtained from Charles River (France), housed under same conditions as described above, and fed with a Purina 5008 diet (IPS Product Supplies Limited, UK). All experiments followed the ethical guidelines for animal experiments and the law of the Czech Republic Nr. 246/1992.
In experiments with C57BL/6 mice or Wistar rats, food intake was measured with overnight fasted animals in individual cages. Food was withdrawn 17 hours prior to injection of lipidated analog of prolactin releasing peptide (PrRP); free access to water was maintained. The administration of either saline, PrRP, or lipidated analogs was performed by SC injection at doses of 1-10 mg/kg (which corresponded to a volume of 0.2 ml/mouse and 0.1 ml/100 g weight of rat). Fifteen minutes after the lipidated analog of prolactin releasing peptide (PrRP) administration, the mice were given pre-weighed food. The food was then weighed every 30 minutes for 5-10 hours. The administration of each dose was performed at least twice, and each group of mice consisted of at least 6 mice.

[5] = test system: ZDF diabetic rats; assay: 21 days repeated administration in diabetic ZDF rats (food intake, OGTT, metabolic parameters); format: in vivo; details: for Cumulative food intake Day 1 / Cumulative food intake Day 1-7 / Cumulative food intake Day 1-14 / Cumulative food intake Day 1-21 / Cholesterol / Insulin / Leptin: ZDF rats
Protocol: (§2) Rats were subjected to a 21-day food intake experiment. ZDF rats were IP injected with either phosphate-buffered saline pH6 (control) or compound 43 or 52 at a dose of 1 and 5 mg/kg (n=8), twice a day for 21 days. After 21 days of treatment, rats were fasted overnight and OGTT was performed. After initial blood glucose measurement, 2 g/kg glucose solution was administered by oral gavage. Blood glucose was then measured at 15, 30, 60, 90, 120 and 180 min.
as §1
The ZDF rats were treated with vehicle or analogs 43 and 52 (1 and 5 mg/kg IP) dissolved in phosphate buffered saline, pH 6, twice daily for 21 days and sacrificed on day 22. Food intake was measured daily up to day 22. Leptin, insulin, cholesterol and HbA1c levels were measured on day 21. Glucose tolerance test (OGTT) was also performed on day 21.
as §2, with “min. […] The statistical significance, denoted by the asterisk (*), was *P<0.05.” for “min.”

[6] = test system: MAPK/ERK1/2 signaling pathway; details: positive control; cited from earlier work

Compound: CCCCCCCCCCCCCCCC(=O)N[C@@H](CCC(=O)NCCCC[C@H](NC(=O)[C@@H](NC(=O)[C@H](CCC(=O)O)NC(=O)[C@H](CCSC)NC(=O)[C@H](CO)NC(=O)[C@H](Cc1c[nH]cn1)NC(=O)[C@H](CCCNC(=N)N)NC(=O)[C@H](Cc1c[nH]cn1)NC(=O)[C@@H](NC(=O)[C@H](CCCNC(=N)N)NC(=O)[C@@H](N)CO)[C@@H](C)O)[C@@H](C)CC)C(=O)N[C@H](C(=O)N1CCC[C@H]1C(=O)N[C@@H](CC(=O)O)C(=O)N[C@H](C(=O)N[C@@H](CC(N)=O)C(=O)N1CCC[C@H]1C(=O)N[C@@H](C)C(=O)N[C@@H](Cc1c[nH]c2ccccc12)C(=O)N[C@@H](Cc1ccc(O)cc1)C(=O)N[C@@H](C)C(=O)N[C@@H](CO)C(=O)N[C@@H](CCCNC(=N)N)C(=O)NCC(=O)N[C@H](C(=O)N[C@@H](CCCNC(=N)N)C(=O)N1CCC[C@H]1C(=O)N[C@H](C(=O)NCC(=O)N[C@@H](CCCNC(=N)N)C(=O)N[C@@H](Cc1ccccc1)C(N)=O)C(C)C)[C@@H](C)CC)[C@@H](C)CC)[C@@H](C)O)C(=O)O [Analog 52] (H-SRTHRHSMEIK([γGlu-Palmitoyl])TPDINPAWYASRGIRPVGRF-NH2)
- Ki [1]: 4.23 ± 2.11 nM
- % of PrRP31, RC-4B/C rat pituitary cells ([1]; affinity relative to PrRP31): 57%
- Ki [2]: 5.95 ± 0.72 nM
- % of PrRP31, GPR10 human receptor transfected in CHO cells ([2]; affinity relative to PrRP31): 65%
- Food intake in mice % of saline-treated group [3]: 10%
- Food intake in rats [4]: significantly reduced
- Food intake in free fed ZDF diabetic rats ([5]; 5 mg/kg IP twice daily, vs vehicle): significantly lowered
- Cumulative food intake Day 1 ([5]; 1 mg/kg IP twice daily): 43.0 ± 2.2 g
- Cumulative food intake Day 1-7 ([5]; 1 mg/kg IP twice daily): 306.9 ± 11.8 g
- Cumulative food intake Day 1-14 ([5]; 1 mg/kg IP twice daily): 570.9 ± 17.1 g
- Cumulative food intake Day 1-21 ([5]; 1 mg/kg IP twice daily): 811.5 ± 23.6 g
- Cumulative food intake Day 1 ([5]; 5 mg/kg IP twice daily): 42.4 ± 2.1 g
- Cumulative food intake Day 1-7 ([5]; 5 mg/kg IP twice daily): 287.8 ± 12.5* g
- Cumulative food intake Day 1-14 ([5]; 5 mg/kg IP twice daily): 559.0 ± 21.0* g
- Cumulative food intake Day 1-21 ([5]; 5 mg/kg IP twice daily): 814.8 ± 26.1 g
- Cholesterol ([5]; day 21, 1 mg/kg IP twice daily): 3.71 ± 0.16 mmol/L
- Insulin ([5]; day 21, 1 mg/kg IP twice daily): 268.94 ± 43.40 pmol/L
- Leptin ([5]; day 21, 1 mg/kg IP twice daily): 16336 ± 1466 pg/mL
- Cholesterol ([5]; day 21, 5 mg/kg IP twice daily): 3.19 ± 0.16 mmol/L
- Insulin ([5]; day 21, 5 mg/kg IP twice daily): 183.35 ± 37.49 pmol/L
- Leptin ([5]; day 21, 5 mg/kg IP twice daily): 11372 ± 427 pg/mL

Compound: PrRP31: prolactin-releasing peptide composed of 31 amino acids, positive control; rat or human form not stated (SRAHQHSMETRTPDINPAWYTGRGIRPVGRF-NH2; ends and bridges not checked)
- Initiation of MAPK/ERK1/2 signaling [6]: shown to initiate MAPK/ERK1/2 signaling
